Reference: article PMC5786798, “Discovery of New Inhibitors of Toxoplasma gondii via the Pathogen Box” (Antimicrobial Agents and Chemotherapy, 2018)

Assays:
[1] = Cytotoxicity evaluation on Vero cell cultures (UptiBlue viable cell counting assay, 72 h); type: cell-based; conditions: African green monkey, Vero cells, means from four values from two experiments
Description: The in vitro cytotoxicity of compounds was evaluated on Vero cell cultures by using 96-well plates, since these cells were used for T. gondii growth in our model. […] After 72 h, cytotoxicity was evaluated by using the UptiBlue viable cell counting assay (Interchim). […] Spectrophotometric measurements (FLUOstar Omega microplate reader; BMG Labtech, France) were made at 570 nm and corrected at 600 nm, and blank readings were made on the mean value of the seven negative-control wells. A sample was considered toxic when the cell viability was lower than 80%. […] For a visual control, the last well of each condition was fixed with cold methanol and stained with kit RAL 555 (RAL Diagnostics, France) and examined microscopically (AxioVert 200M; Zeiss, France) at a magnification of ×20 instead of being tested with UptiBlue.

[2] = tested on: T. gondii tachyzoites (RH strain, type I); assay: Determination of IC50s, in vitro chemosensitivity of T. gondii (ELISA, 72 h); conditions: for IC50: T. gondii RH tachyzoites on Vero cells, 72 h, ELISA, 2-fold dilution series 2 to 0.015 μM, means from four values from two experiments; for selective antitoxoplasmic activity according to hit criteria: hit criteria IC50 <2 μM and SI >4
Toxoplasma gondii = conditions: effect against Toxoplasma; literature value, no reference given; cited from earlier work

| SMILES | CC50 at 72 h [1] | further results |
| --- | --- | --- |
| FC(F)(F)c1cnc(Sc2nnc(-c3ccncc3)o2)c(Cl)c1 [MMV011765] | 9.48 µM |  |
| c1ccc(-c2nc(NC3CCCCC3)cc(C3CC3)n2)nc1 [MMV021013] | 15.9 µM | IC50 [2]: 1120 ± 35 nM; IC50 ([2]; Toxoplasma gondii, Vero): < 2000 nM |
| O=C(Nc1ccc(N2CCNCC2)cc1)c1ccn2ncc(-c3cccc(Cl)c3)c2n1 [MMV022478] | 2.23 µM |  |
| COc1ccc(OC)c(NCc2ccc3nc(N)nc(N)c3c2Cl)c1 [MMV675968] | 5.5 µM |  |
| O=C(Nc1nc(-c2ccccn2)cs1)c1cncn1-c1ccccc1 [MMV676512] | 3.61 µM |  |
| CNC(=O)c1nn(C)c2c1C(C)(C)Cc1cnc(Nc3ccc(N4CCN(C)CC4)cc3)nc1-2 [MMV676602] | 3.3 µM |  |
| O=C(Nc1ccc(C(F)(F)F)c(C(F)(F)F)c1)c1cc(Cl)ccc1O [MMV687807] | 1.69 µM |  |
| CN1CCC(c2cc(-c3ccncc3)c(-c3ccc(F)cc3)[nH]2)CC1 [MMV688703] |  | selective antitoxoplasmic activity according to hit criteria [2]: not selective; selective antitoxoplasmic activity according to hit criteria ([2]; listed as MV688703): did not show the criteria for inclusion as an active compound |
| CC(C)(C)[C@H]1CC[C@H](CC2=C(O)C(=O)c3ccccc3C2=O)CC1 [MMV689480, buparvaquone, reference compound] | 8.66 µM |  |
| CCc1nc(N)nc(N)c1-c1ccc(Cl)cc1 [PYR, pyrimethamine, reference compound] | 10.5 µM | IC50 ([2]; Toxoplasma gondii, Vero): 1170 ± 76 nM |
| OC(Cn1cncn1)(Cn1cncn1)c1ccc(F)cc1F [fluconazole] |  | IC50 (Toxoplasma gondii): 3000 nM |
| CCC(C)n1ncn(-c2ccc(N3CCN(c4ccc(OCC5COC(Cn6cncn6)(c6ccc(Cl)cc6Cl)O5)cc4)CC3)cc2)c1=O (stereo not shown) [itraconazole] |  | IC50 (Toxoplasma gondii): 500 nM |
